Test results: ChEMBL document CHEMBL2385001, “Synthesis and evaluation of 7-chloro-4-(piperazin-1-yl)quinoline-sulfonamide as hybrid antiprotozoal agents” (Bioorg Med Chem, 2013)

Legend:
[1] = Cytotoxicity against human HT-29 cells assessed as growth inhibition at 100 uM after 48 hrs by MTT assay relative to control; type: cell-based; details: read-out: GI
[2] = Hemolytic activity in human RBC at 100 uM after 48 hrs relative to control; type: ADME, cell-based, Erythrocyte; details: red blood cells, read-out: Activity
[3] = Safety index, ratio of cytotoxicity against human HT-29 cells to antimalarial activity against chloroquine-resistant Plasmodium falciparum FCR-3; type: toxicity, cell-based; details: read-out: Selectivity Index
Entamoeba histolytica = assay: Antiamoebic activity against trophozoite stage of Entamoeba histolytica HM-1:IMSS assessed as growth inhibition after 72 hrs by microdilution method; type: functional, organism-based
Plasmodium falciparum = assay: Antimalarial activity against chloroquine-resistant Plasmodium falciparum FCR-3 assessed as growth inhibition after 24 hrs by [3H]-hypoxanthine incorporation assay; type: functional; details: FCR-3/Gambia
[4] = Inhibition of beta-haematin formation after 24 hrs by microtiter plate assay; type: functional
[5] = Cytotoxicity against human HT-29 cells assessed as cell viability at 100 uM after 48 hrs by MTT assay relative to control; type: cell-based; details: read-out: Activity
[6] = Safety index, ratio of cytotoxicity against human HT-29 cells to antiamoebic activity against trophozoite stage of Entamoeba histolytica HM-1:IMSS; type: toxicity, cell-based; details: read-out: Selectivity Index

Compound | inhibition at 48 h, 100 µM [1] | hemolysis at 48 h, 100 µM [2] | selectivity ratio [3] | IC50 (Entamoeba histolytica) | IC50 (Plasmodium falciparum) | IC50 [4] | viability at 48 h, 100 µM [5] | selectivity ratio [6]
CC(=O)Nc1ccc(S(=O)(=O)N2CCN(c3ccnc4cc(Cl)ccc34)CC2)cc1 | 17% | 0.83% | 84 | 9.61 µM | 1.16 µM | 8.84 µM | 96.8% | –
O=[N+]([O-])c1ccccc1S(=O)(=O)N1CCN(c2ccnc3cc(Cl)ccc23)CC1 | 17% | 0.01% | 44 | > 100 µM | 1.94 µM | 63.5 µM | 86.1% | –
O=S(=O)(c1ccc(Cl)cc1)N1CCN(c2ccnc3cc(Cl)ccc23)CC1 | – | 1.4% | – | 25.7 µM | 3.27 µM | 34.8 µM | 61.3% | –
O=S(=O)(c1cc(Cl)ccc1Cl)N1CCN(c2ccnc3cc(Cl)ccc23)CC1 | – | 2.06% | – | 30.2 µM | 2.55 µM | 47.2 µM | 63.4% | –
CS(=O)(=O)N1CCN(c2ccnc3cc(Cl)ccc23)CC1 | – | 0.01% | – | > 100 µM | 8.54 µM | 13.5 µM | 73% | –
O=S(=O)(c1ccccc1)N1CCN(c2ccnc3cc(Cl)ccc23)CC1 | 45% | 0.01% | – | 32.8 µM | 4.02 µM | 18.1 µM | 55.1% | –
C=C[C@H]1CN2CC[C@H]1C[C@H]2[C@H](O)c1ccnc2ccc(OC)cc12 [QUININE] | – | 2.14% | – | – | 0.17 µM | 22.1 µM | – | –
O=S(=O)(c1ccc2ccccc2c1)N1CCN(c2ccnc3cc(Cl)ccc23)CC1 | – | 0.97% | – | 23.4 µM | 3.06 µM | 71.2 µM | 59.8% | –
COc1ccc(S(=O)(=O)N2CCN(c3ccnc4cc(Cl)ccc34)CC2)cc1 | – | 6.03% | – | 8.23 µM | 3.3 µM | 9.04 µM | 68.1% | –
CC(C)(C)c1ccc(S(=O)(=O)N2CCN(c3ccnc4cc(Cl)ccc34)CC2)cc1 | – | 1.36% | – | 2.86 µM | 6.09 µM | 72.4 µM | 67.7% | 24
CCCS(=O)(=O)N1CCN(c2ccnc3cc(Cl)ccc23)CC1 | 17% | 0.82% | 39 | > 100 µM | 1.72 µM | 1.79 µM | 67.1% | –
CC[C@@]1(O)C(=O)OCc2c1cc1n(c2=O)Cc2cc3ccccc3nc2-1 [CAMPTOTHECIN] | 52% | – | – | – | – | – | 48.3% | –
Cc1ccc(S(=O)(=O)N2CCN(c3ccnc4cc(Cl)ccc34)CC2)cc1 | – | 0.62% | – | 4.54 µM | 4.22 µM | 8.92 µM | 64.5% | 14
